Measured values from patent publication US20230076646A1, “HERBICIDE COMBINATIONS COMPRISING GLUFOSINATE AND SULFENTRAZONE” (BASF SE, priority 2020, published 2023).

Tests used:
Experiment in all cases: Greenhouse post-emergence weed control, percent injury vs untreated control
Conditions in all cases: 504 h
[1] = system: Echinochloa crus-galli (ECHCG); format: in vivo
Protocol: (§1) Glufosinate was used as a commercial SL formulation containing 280 g ai/l of glufosinate (Liberty 280 SL, BASF). While the PPO herbicide Spartan containing 480 g ai/l sulfentrazone was used (Spartan 480 SC, FMC) formulation. • The evaluation for plant injury or damage caused by the chemical compositions was carried out using a scale from 0-100% when compared with the untreated control plants. Here, 0 means no damage and 100 means complete destruction of the plants.
(§2) 22., E=X+Y−(X*Y/100), where • X=effect in percent using herbicide A at an application rate of a; • Y=effect in percent using herbicide B at an application rate of b; • E=expected effect (in %) of A+B at application rates a+b.
(§3) The value E corresponds to the effect (plant damage or injury) which is to be expected if the activity of the individual compounds is just additive. If the observed effect is higher than the value E calculated according to Colby, a synergistic effect is present.
(§4) Seedlings of Palmer amaranth (Amaranthus palmeri; AMAPA), common waterhemp (Amaranthuis tameriscinus; AMATA), and barnyardgrass (Echinochloa crus-galli; ECHCG) were treated with postemergence applications of either glufosinate at 246 g ai/ha, sulfentrazone at 4.2 or 42 g ai/ha, or the combination of glufosinate (246 g ai/ha) and sulfentrazone (4.2, 42 g ai/ha), respectively, when they were 5-10 cm in height. All glufosinate treatments contained 1% (w/v) ammonium sulfate and solo sulfentrazone treatments contained 1% (v/v) MSO surfactant. Plants were placed in a completely randomized design with four replications per treatment. Percent injury data was collected 21 days after treatment (DAT).

[2] = system: Amaranthus tamariscinus (AMATA); format: in vivo
Protocol: as §1, §2, §3, §4

[3] = system: Amaranthus Palmerii (AMAPA); format: in vivo, Amaranthus palmeri
Protocol: as §1, §2, §3
Seedlings of Palmer amaranth (Amaranthus palmeri; AMAPA), common waterhemp (Amaranthuis tameriscinus; AMATA), and barnyardgrass (Echinochloa crus-galli; ECHCG) were treated with postemergence applications of either glufosinate at 246 g ai/ha, sulfentrazone at 4.2 or 42 g ai/ha, or the combination of glufosinate (246 g ai/ha) and sulfentrazone (4.2, 42 g ai/ha), respectively, when they were 5-10 cm in height. […]

[4] = read-out: Solo Glufosinate (246 g ai/ha) % activity

Structure (SMILES) | inhibition at 246 g/ha [1, 4] | inhibition at 246 g/ha [2, 4] | inhibition at 246 g/ha [3, 4] | inhibition at 42 g/ha ([1]; ECHCG, 42 g ai/ha, 1% (v/v) MSO, 21 DAT, read-out: Solo Sulfentrazone (42 g ai/ha) % activity) | inhibition at 42 g/ha ([2]; AMATA, 42 g ai/ha, 1% (v/v) MSO, 21 DAT, read-out: Solo Sulfentrazone (42 g ai/ha) % activity) | inhibition at 4.2 g/ha ([3]; AMAPA, 4.2 g ai/ha, 1% (v/v) MSO, 21 DAT, 0 = no damage, 100 = complete destruction, read-out: Solo Sulfentrazone (4.2 g ai/ha) % activity)
CP(=O)(O)CCC(N)C(=O)O (racemic) [Glufosinate, (2RS)-2-amino-4-[hydroxy(methyl)phosphinoyl]butyric acid] | 57% | 79% | 79% | – | – | –
Cc1nn(-c2cc(NS(C)(=O)=O)c(Cl)cc2Cl)c(=O)n1C(F)F [Sulfentrazone, sulfentrazone] | – | – | – | 23% | 33% | 20%
